Reference: ChEMBL document CHEMBL3638675, “Alkoxy pyrimidine PDE10 inhibitors” (2014)

target: cAMP and cAMP-inhibited cGMP 3',5'-cyclic phosphodiesterase 10A (Homo sapiens, UniProt Q9Y233); assay: Fluorescence Polarization Assay: The activity of the compounds in accordance with the present invention as PDE10 inhibitors may be readily determined without undue experimentation using a fluorescence polarization (FP) methodology that is well known in the art (Huang, W., et al., J. Biomol Screen, 2002, 7: 215). […] In a typical experiment the PDE10 inhibitory activity of the compounds of the present invention was determined in accordance with the following experimental method. PDE10A2 was amplified from human fetal brain cDNA (Clontech, Mountain View, Calif.) using a forward primer corresponding to nucleotides 56-77 of human PDE10A2 (Accession No. AF127480, Genbank Identifier 4894716), containing a Kozak consensus sequence, and a reverse primer corresponding to nucleotides 2406-2413 of human PDE10A2.
Sequence (Q9Y233 whole entry): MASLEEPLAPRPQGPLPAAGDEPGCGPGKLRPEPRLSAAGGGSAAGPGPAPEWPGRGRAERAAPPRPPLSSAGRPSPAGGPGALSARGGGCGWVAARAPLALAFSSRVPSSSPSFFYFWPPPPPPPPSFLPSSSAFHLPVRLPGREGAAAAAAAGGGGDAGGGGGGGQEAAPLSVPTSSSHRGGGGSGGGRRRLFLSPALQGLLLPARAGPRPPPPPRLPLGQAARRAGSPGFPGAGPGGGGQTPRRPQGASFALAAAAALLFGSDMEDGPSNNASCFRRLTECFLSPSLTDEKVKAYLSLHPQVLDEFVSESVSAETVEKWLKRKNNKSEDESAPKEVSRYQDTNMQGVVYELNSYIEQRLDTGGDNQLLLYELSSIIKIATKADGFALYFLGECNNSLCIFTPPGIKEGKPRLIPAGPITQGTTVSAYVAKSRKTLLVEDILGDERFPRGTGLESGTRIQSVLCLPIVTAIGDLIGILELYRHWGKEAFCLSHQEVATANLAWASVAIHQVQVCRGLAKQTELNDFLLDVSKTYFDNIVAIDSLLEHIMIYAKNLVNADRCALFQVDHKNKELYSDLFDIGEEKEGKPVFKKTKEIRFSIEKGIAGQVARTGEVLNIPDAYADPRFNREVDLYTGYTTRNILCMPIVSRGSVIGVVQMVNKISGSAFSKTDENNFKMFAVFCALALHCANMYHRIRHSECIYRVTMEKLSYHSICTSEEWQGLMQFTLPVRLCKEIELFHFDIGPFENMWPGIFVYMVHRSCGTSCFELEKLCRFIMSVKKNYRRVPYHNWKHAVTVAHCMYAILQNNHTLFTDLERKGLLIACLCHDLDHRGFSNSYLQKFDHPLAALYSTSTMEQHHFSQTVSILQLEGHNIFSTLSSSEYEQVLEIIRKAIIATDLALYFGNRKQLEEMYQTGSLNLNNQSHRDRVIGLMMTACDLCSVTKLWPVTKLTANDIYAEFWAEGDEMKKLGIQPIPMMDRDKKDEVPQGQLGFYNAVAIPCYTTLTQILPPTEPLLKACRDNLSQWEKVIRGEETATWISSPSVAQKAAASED

SMILES	Ki [nM]
COc1nc(OC[C@H]2C[C@@H]2c2ccc3ncccc3n2)nc(NCc2cnn(C)c2)c1C	0.17
Cc1nc(C)c(CNc2nc(OC[C@@H]3C[C@H]3c3ccc4ccccc4n3)nc(Cl)c2C)s1	0.0006
Cc1c(Cl)nc(OC[C@@H]2C[C@H]2c2ccc3ncccc3n2)nc1NCc1cnn(C)c1	0.019
